Each structure is given as a SMILES string. Marks after values point to notes of the source that are not given here.

The first assay relates to third stage larvae of Haemonchus contortus. Nature of the assay: Haemonchus contortus, Larvae Stage 3 (HcL3) In Vitro Assay. The class given is cell-based. The following applies: Haemonchus contortus third stage larvae in vitro; class mark appended to the Ex # in Table 3.
`CC(C)C[C@H]1C(=O)O[C@H](Cc2ccc(Cc3cscn3)cc2)C(=O)N(C)[C@@H](CC(C)C)C(=O)O[C@H](C)C(=O)N(C)[C@@H](CC(C)C)C(=O)O[C@H](Cc2ccc(Cc3cscn3)cc2)C(=O)N(C)[C@@H](CC(C)C)C(=O)O[C@H](C)C(=O)N1C` [Example 3-45]: the “HcL3 MED” value is given as 3-45* (Examples with an asterisk (*) have HcL3 MED values≤1 μM).

On to `Cc1nc(Cc2ccc(C[C@H]3OC(=O)[C@H](CC(C)C)N(C)C(=O)[C@@H](C)OC(=O)[C@H](CC(C)C)N(C)C(=O)[C@@H](Cc4ccc(Cc5csc(C)n5)cc4)OC(=O)[C@H](CC(C)C)N(C)C(=O)[C@@H](C)OC(=O)[C@H](CC(C)C)N(C)C3=O)cc2)cs1` [Example 3-76], for which the “HcL3 MED” value was 3-76^ (Examples with a carrot (^) have HcL3 MED values>1 and ≤3.3 μM).

For `CC(C)C[C@H]1C(=O)O[C@H](Cc2ccc(Cc3ccnn3CC(C)C)cc2)C(=O)N(C)[C@@H](CC(C)C)C(=O)O[C@H](C)C(=O)N(C)[C@@H](CC(C)C)C(=O)O[C@H](Cc2ccc(Cc3ccnn3CC(C)C)cc2)C(=O)N(C)[C@@H](CC(C)C)C(=O)O[C@H](C)C(=O)N1C` [Example 3-211], the “HcL3 MED” value is 3-211^ (Examples with a carrot (^) have HcL3 MED values>1 and ≤3.3 μM).

Take `CCCn1nccc1Cc1ccc(C[C@H]2OC(=O)[C@H](CC(C)C)N(C)C(=O)[C@@H](C)OC(=O)[C@H](CC(C)C)N(C)C(=O)[C@@H](Cc3ccc(Cc4ccnn4CCC)cc3)OC(=O)[C@H](CC(C)C)N(C)C(=O)[C@@H](C)OC(=O)[C@H](CC(C)C)N(C)C2=O)cc1` [Example 3-303]: the “HcL3 MED” value was 3-303* (Examples with an asterisk (*) have HcL3 MED values≤1 μM).

Regarding `COc1cc(Cc2ccc(C[C@H]3OC(=O)[C@H](CC(C)C)N(C)C(=O)[C@@H](C)OC(=O)[C@H](CC(C)C)N(C)C(=O)[C@@H](Cc4ccc(Cc5cnc(OC)c(OC)c5)cc4)OC(=O)[C@H](CC(C)C)N(C)C(=O)[C@@H](C)OC(=O)[C@H](CC(C)C)N(C)C3=O)cc2)cnc1OC` [Example 3-115], the “HcL3 MED” value is 3-115^ (Examples with a carrot (^) have HcL3 MED values>1 and ≤3.3 μM).

Consider `CC(C)C[C@H]1C(=O)O[C@H](Cc2ccc(Cc3ccccn3)cc2)C(=O)N(C)[C@@H](CC(C)C)C(=O)O[C@H](C)C(=O)N(C)[C@@H](CC(C)C)C(=O)O[C@H](Cc2ccc(Cc3ccccn3)cc2)C(=O)N(C)[C@@H](CC(C)C)C(=O)O[C@H](C)C(=O)N1C` [Example 3-27], for which the “HcL3 MED” value is 3-27^ (Examples with a carrot (^) have HcL3 MED values>1 and ≤3.3 μM).

On to `Cc1nc(C)c(Cc2ccc(C[C@H]3OC(=O)[C@H](CC(C)C)N(C)C(=O)[C@@H](C)OC(=O)[C@H](CC(C)C)N(C)C(=O)[C@@H](Cc4ccc(Cc5sc(C)nc5C)cc4)OC(=O)[C@H](CC(C)C)N(C)C(=O)[C@@H](C)OC(=O)[C@H](CC(C)C)N(C)C3=O)cc2)s1` [Example 3-52], for which the “HcL3 MED” value is given as 3-52* (Examples with an asterisk (*) have HcL3 MED values≤1 μM).

The same assay, now with this note: approximately 96 hours incubation; multiple-resistant field isolate.
As for `CC(C)C[C@H]1C(=O)O[C@H](Cc2ccc(Cc3cnco3)cc2)C(=O)N(C)[C@@H](CC(C)C)C(=O)O[C@H](C)C(=O)N(C)[C@@H](CC(C)C)C(=O)O[C@H](Cc2ccccc2)C(=O)N(C)[C@@H](CC(C)C)C(=O)O[C@H](C)C(=O)N1C` [Example 4-135], the “HcL3 MED (symbol after Ex#)” value is 4-135^ (Examples with a carrot (^) have HcL3 MED values>1 and ≤3.3 μM).

With `Cc1nc(Cc2ccc(C[C@H]3OC(=O)[C@H](CC(C)C)N(C)C(=O)[C@@H](C)OC(=O)[C@H](CC(C)C)N(C)C(=O)[C@@H](Cc4ccccc4)OC(=O)[C@H](CC(C)C)N(C)C(=O)[C@@H](C)OC(=O)[C@H](CC(C)C)N(C)C3=O)cc2)co1` [Example 4-83], the “HcL3 MED (symbol after Ex#)” value is 4-83^ (Examples with a carrot (^) have HcL3 MED values>1 and ≤3.3 μM).

As to `CC(C)C[C@H]1C(=O)O[C@H](Cc2ccc(Cc3cccs3)cc2)C(=O)N(C)[C@@H](CC(C)C)C(=O)O[C@H](C)C(=O)N(C)[C@@H](CC(C)C)C(=O)O[C@H](Cc2ccccc2)C(=O)N(C)[C@@H](CC(C)C)C(=O)O[C@H](C)C(=O)N1C` [Example 4-5], the “HcL3 MED (symbol after Ex#)” value was 4-5^ (Examples with a carrot (^) have HcL3 MED values>1 and ≤3.3 μM).

As to `Cc1scnc1C(O)c1ccc(C[C@H]2OC(=O)[C@H](CC(C)C)N(C)C(=O)[C@@H](C)OC(=O)[C@H](CC(C)C)N(C)C(=O)[C@@H](Cc3ccccc3)OC(=O)[C@H](CC(C)C)N(C)C(=O)[C@@H](C)OC(=O)[C@H](CC(C)C)N(C)C2=O)cc1` (stereo partly drawn) [Example 4-56], the “HcL3 MED (symbol after Ex#)” value is 4-56^ (Examples with a carrot (^) have HcL3 MED values>1 and ≤3.3 μM).

On to `COc1cc(F)ccc1Cc1ccc(C[C@H]2OC(=O)[C@H](CC(C)C)N(C)C(=O)[C@@H](C)OC(=O)[C@H](CC(C)C)N(C)C(=O)[C@@H](Cc3ccccc3)OC(=O)[C@H](CC(C)C)N(C)C(=O)[C@@H](C)OC(=O)[C@H](CC(C)C)N(C)C2=O)cc1` [Example 2-9], for which the “HcL3 MED (symbol after Ex#)” value is on record as 2-9* (Examples with an asterisk (*) have HcL3 MED values≤1 μM).

Consider `COc1ncccc1Cc1ccc(C[C@H]2OC(=O)[C@H](CC(C)C)N(C)C(=O)[C@@H](C)OC(=O)[C@H](CC(C)C)N(C)C(=O)[C@@H](Cc3ccccc3)OC(=O)[C@H](CC(C)C)N(C)C(=O)[C@@H](C)OC(=O)[C@H](CC(C)C)N(C)C2=O)cc1` [Example 4-22], for which the “HcL3 MED (symbol after Ex#)” value was 4-22^ (Examples with a carrot (^) have HcL3 MED values>1 and ≤3.3 μM).

For `Cc1ccc(Cc2ccc(C[C@H]3OC(=O)[C@H](CC(C)C)N(C)C(=O)[C@@H](C)OC(=O)[C@H](CC(C)C)N(C)C(=O)[C@@H](Cc4ccccc4)OC(=O)[C@H](CC(C)C)N(C)C(=O)[C@@H](C)OC(=O)[C@H](CC(C)C)N(C)C3=O)cc2)cn1` [Example 4-101], the “HcL3 MED (symbol after Ex#)” value is 4-101^ (Examples with a carrot (^) have HcL3 MED values>1 and ≤3.3 μM).

As to `CC(C)C[C@H]1C(=O)O[C@H](Cc2ccc(Cc3cocn3)cc2)C(=O)N(C)[C@@H](CC(C)C)C(=O)O[C@H](C)C(=O)N(C)[C@@H](CC(C)C)C(=O)O[C@H](Cc2ccccc2)C(=O)N(C)[C@@H](CC(C)C)C(=O)O[C@H](C)C(=O)N1C` [Example 4-52], the “HcL3 MED (symbol after Ex#)” value was 4-52* (Examples with an asterisk (*) have HcL3 MED values≤1 μM).

`Cc1cc(Cc2ccc(C[C@H]3OC(=O)[C@H](CC(C)C)N(C)C(=O)[C@@H](C)OC(=O)[C@H](CC(C)C)N(C)C(=O)[C@@H](Cc4ccccc4)OC(=O)[C@H](CC(C)C)N(C)C(=O)[C@@H](C)OC(=O)[C@H](CC(C)C)N(C)C3=O)cc2)n(C)n1` [Example 4-42]: the “HcL3 MED (symbol after Ex#)” value is 4-42^ (Examples with a carrot (^) have HcL3 MED values>1 and ≤3.3 μM).

Take `CC(C)C[C@H]1C(=O)O[C@H](Cc2ccc(Cc3ncc(Cl)s3)cc2)C(=O)N(C)[C@@H](CC(C)C)C(=O)O[C@H](C)C(=O)N(C)[C@@H](CC(C)C)C(=O)O[C@H](Cc2ccccc2)C(=O)N(C)[C@@H](CC(C)C)C(=O)O[C@H](C)C(=O)N1C` [Example 4-111]: the “HcL3 MED (symbol after Ex#)” value was 4-111^ (Examples with a carrot (^) have HcL3 MED values>1 and ≤3.3 μM).

For `CC(C)C[C@H]1C(=O)O[C@H](Cc2ccc(C(O)c3sccc3Cl)cc2)C(=O)N(C)[C@@H](CC(C)C)C(=O)O[C@H](C)C(=O)N(C)[C@@H](CC(C)C)C(=O)O[C@H](Cc2ccccc2)C(=O)N(C)[C@@H](CC(C)C)C(=O)O[C@H](C)C(=O)N1C` (stereo partly drawn) [Example 4-77], the “HcL3 MED (symbol after Ex#)” value is 4-77^ (Examples with a carrot (^) have HcL3 MED values>1 and ≤3.3 μM).

The record behind these values is patent US11771738B2 (Zoetis Services LLC, priority 2018, dated 2023).
